Reference: EPA's CvTdb concentration-time database

Experiments:
rat [1] = assay: concentration in lung after dosing; conditions: dosed: benzo[a]pyrene, inhalation, duration: 4 hr, F344
rat [2] = assay: concentration in plasma after dosing; conditions: dosed: benzo[a]pyrene, inhalation, duration: 4 hr, F344
rat [3] = assay: concentration in blood after dosing; conditions: dosed: halothane, 50000 ppm, dermal, duration: 4 hr, male, F344
rat [4] = assay: concentration in blood after dosing; conditions: dosed: halothane, 50000 ppm, dermal, duration: 4 hr, male, F344; remark: listed apart in the source
rat [5] = assay: concentration in blood after dosing; conditions: dosed: halothane, 50000 ppm, dermal, duration: 4 hr, male, F344; remark: listed apart in the source
rat [6] = assay: concentration in blood after dosing; conditions: dosed: halothane, 50000 ppm, dermal, duration: 4 hr, male, F344; remark: listed apart in the source

Oc1ccc2cc3ccc4cccc5ccc(c2c1)c3c45 [9-hydroxy benzo[a]pyrene]
Conditions	concentration in lung, 0.05 h [ng/mL]	concentration in lung, 1 h [ng/mL]	concentration in lung, 2 h [ng/mL]	concentration in lung, 4 h [ng/mL]	concentration in plasma, 0.5 h [ng/mL]	concentration in plasma, 1 h [ng/mL]	concentration in plasma, 2 h [ng/mL]	concentration in plasma, 4 h [ng/mL]
rat [1], 0.1 mg/m^3, female	0.389	3.61	0.814	0.209	–	–	–	–
rat [1], 0.1 mg/m^3, male	0.387	3.82	1.62	0.206	–	–	–	–
rat [1], 1 mg/m^3, female	11.8	15.5	14.6	1.6	–	–	–	–
rat [1], 1 mg/m^3, male	4.34	14.2	4.36	2.55	–	–	–	–
rat [1], 2.5 mg/m^3, female	23.9	52.2	12.3	1.49	–	–	–	–
rat [1], 2.5 mg/m^3, male	21.7	48.1	8.15	3.18	–	–	–	–
rat [2], 0.1 mg/m^3, female	–	–	–	–	0.0614	0.243	0.122	0.00678
rat [2], 0.1 mg/m^3, male	–	–	–	–	0.1	0.302	0.102	0.0105
rat [2], 1 mg/m^3, female	–	–	–	–	0.339	5.95	0.303	0.00674
rat [2], 1 mg/m^3, male	–	–	–	–	0.606	8.58	0.97	0.00272
rat [2], 2.5 mg/m^3, female	–	–	–	–	4.93	29.3	5.63	0.276
rat [2], 2.5 mg/m^3, male	–	–	–	–	5.6	33.1	7.14	0.363

FC(F)(F)C(Cl)Br (configuration not stated) [halothane]
concentration in blood [ng/mL]
Conditions	0.5 h	1 h	2 h	3 h	4 h
rat [3]	1420	2310	2600	3360	2720
rat [4]	1300	–	3220	3020	2520
rat [5]	3130	4930	5210	5410	7710
rat [6]	623	2040	2110	2720	2190
